Results published in patent US20060142287A1, “Use of a combination of dppe with other chemotherapeutic agents for the treatment of breast cancer” (priority 2002, published 2006).

System: patients with metastatic and/or recurrent breast cancer
Assay: Phase III clinical trial of DPPE/doxorubicin versus doxorubicin alone, overall survival
Assay type: in vivo, human
Description: In the treatment of stage I or II breast cancer, the diphenyl compound preferably is used in an amount of about 3 to about 10 mg/kg of patient, administered intravenously over a period of about 30 to about 90 minutes prior to administration of the chemotherapeutic agent(s) and continuing for the period of administration of the chemotherapeutic agent(s). In the specific Phase III clinical trial described herein conducted on patients with metastatic and/or recurrent breast cancer, there was employed 5.3 mg/kg of DPPE in the form of the base (equivalent to 6 mg/kg of DPPE in the form of its hydrochloride), administered intravenously as an aqueous solution thereof over 80 minutes, with the last twenty minutes being accompanied by infusion of the specific chemotherapeutic agent.
The chemotherapy agent active in breast cancer which is employed herein preferably is used in a total amount of about 50 to about 75 mg/M^2 of patient for doxorubicin or epirubicin, about 175 to about 225 mg/M^2 for Taxol and about 75 to about 100 mg/M^2 for Taxotere. In the specific Phase III clinical trial described herein conducted on patients with metastatic and/or recurrent breast cancer, there was employed 60 mg/M^2 of doxorubicin administered over the last 20 minutes of infusion of the DPPE solution.
Patients were treated with doxorubicin (DOX) alone or a combination of doxorubicin and DPPE. […]
The survival time for patients was determined for those patients with metastatic breast cancer receiving no prior chemotherapy treatment in relation to those who had received prior chemotherapy treatment, and for patients that had received no previous treatment type (namely, chemotherapy, radiotherapy and/or hormone treatment) and those who had received previous treatment. The survival times were determined for patients receiving the DPPE/DOX combination and DOX alone.

COc1cccc2c1C(=O)c1c(O)c3c(c(O)c1C2=O)C[C@@](O)(C(=O)CO)C[C@@H]3O[C@H]1C[C@H](N)[C@H](O)[C@H](C)O1 [DOX, doxorubicin]
median overall survival (patients with metastatic disease who had estrogen receptor-negative tumors, FIG. 3): 9.3 months | median overall survival (patients with metastatic disease who had no previous chemotherapy, DPPE 5.3 mg/kg iv over 80 min, doxorubicin 60 mg/M^2 over last 20 min, FIG. 1): 16.2 months | median overall survival (patients with metastatic disease who had no previous treatment (chemotherapy, radiotherapy and/or hormone treatment), FIG. 2): 15 months
